Source: patent publication US7368462B1, “Melanin concentrating hormone antagonists” (The Procter & Gamble Company, priority 2004, dated 2008)

Assays:
[1] = molecular target: T1, 5-HT2c receptor (Homo sapiens, UniProt P28335); test: 5-HT2c receptor binding assay (3H-mesulergine competition)
T1 sequence (P28335 33-458): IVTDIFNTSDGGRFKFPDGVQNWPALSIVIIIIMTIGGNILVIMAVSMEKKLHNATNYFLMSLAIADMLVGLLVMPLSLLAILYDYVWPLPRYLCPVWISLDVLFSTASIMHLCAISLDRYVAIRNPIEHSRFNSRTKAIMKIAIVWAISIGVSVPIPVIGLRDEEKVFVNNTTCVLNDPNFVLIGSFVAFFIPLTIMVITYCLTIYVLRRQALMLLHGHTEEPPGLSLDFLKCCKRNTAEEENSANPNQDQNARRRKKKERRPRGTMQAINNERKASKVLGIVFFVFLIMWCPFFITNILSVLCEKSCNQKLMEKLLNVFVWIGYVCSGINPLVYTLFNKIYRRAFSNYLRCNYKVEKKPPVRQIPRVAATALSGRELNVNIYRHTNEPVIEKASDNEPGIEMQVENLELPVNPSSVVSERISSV
Procedure: Binding assays for serotonin receptor, 5-HT2c receptor MCH antagonist compounds are evaluated for binding to the serotonin 5-HT2c receptor to determine receptor selectivity. Binding activity is assessed using a competitive assay with ^3H-mesulergine (Perkin Elmer), a 5-HT2c selective ligand, on membrane containing the 5-HT2c receptor. Briefly, 1 nM ^3H-mesulergine and varying concentrations of the compound are incubated with 5-HT2c receptor membranes, following an incubation period, the membranes are washed and ^3H-mesulergine bound to membranes is measured in a liquid scintillation counter. The amount of bound ^3H-mesulergine at the varying concentration of competitor compound is used to derive the affinity (Ki) of the compound for the 5-HT2c receptor. 5-HT2c receptor containing membranes are readily available from several companies including Perkin-Elmer and Euroscreen.

[2] = molecular target: MCH1R (UniProt Q99705); test: MCH1R competition binding assay
Procedure: In vitro binding and function assays are performed on membranes derived from cells or tissues expressing endogenous MCH1R. Competition binding assays are performed to identify high affinity compounds. Briefly, either radiolabeled or europium labeled MCH with varying concentrations of competitor compound which are incubated with membranes expressing the receptor. Rat brain membrane or cell lines, including but not limited to human Kelly neuroblastoma cells, A-431 epidermoid cells, and rat PC-12 cells are known to express endogenous MCH1R and are used in the assay. Binding is allowed to proceed until equilibrium is reached then bound labeled MCH is separated from free MCH by capturing membranes onto a filter. The filters are washed to remove loosely associated MCH and labeled MCH is quantified. Data is analyzed and IC50 and Ki are calculated to determine compound affinity.

Q: Which results are given for `CN(C)Cc1ccc2c(CNC(=O)c3ccc(-c4ccc(F)cc4)cc3)cccc2c1` [4′-Fluoro-biphenyl-4-carboxylic acid (6-dimethylaminomethyl-naphthalen-1-ylmethyl)-amide]?
A: IC50 [1]: 1.13 µM; IC50 [2]: 0.012 µM

Q: Which IC50 [1] does the source give for `CCN(CC)Cc1ccc2c(CN(C)C(=O)c3ccc(-c4ccc(C(F)(F)F)cc4)cc3)cccc2c1` [4′-Trifluoromethyl-biphenyl-4-carboxylic acid (6-diethylaminomethyl-naphthalen-1-ylmethyl)-methyl-amide] here?
A: Its IC50 is 2.06 µM.

Q: And the IC50 [2]?
A: Its IC50 is 0.07 µM.
